Data: ChEMBL document CHEMBL1949618, “Synthesis and properties of mRNA cap analogs containing imidodiphosphate moiety--fairly mimicking natural cap structure, yet resistant to enzymatic hydrolysis” (Bioorg Med Chem, 2012)
The source made the active and inactive calls. No cut-off for these calls is given here.

Assays:
[1] = Chemical stability of the compound in aqueous buffer at pH 8 assessed as decomposition at 5 mM up to 2 hrs by RP-HPLC; assay type: physicochemical; conditions: pH 8, 2 h, 5000 µM
[2] = Chemical stability of the compound in aqueous buffer at pH 2 assessed as decomposition at 5 mM up to 2 hrs by RP-HPLC; assay type: physicochemical; conditions: pH 2, 2 h, 5000 µM
[3] = Chemical stability of the compound in aqueous buffer at pH 8 assessed as decomposition at 5 mM after 24 hrs by RP-HPLC; assay type: physicochemical; conditions: read-out: Drug degradation
[4] = Stability of the compound at -20 degreeC after 12 months; assay type: physicochemical; conditions: 8766 h
[5] = Chemical stability of the compound in aqueous buffer at pH 6 assessed as decomposition at 5 mM up to 2 hrs by RP-HPLC; assay type: physicochemical; conditions: pH 6, 2 h, 5000 µM
[6] = Chemical stability of the compound in aqueous buffer at pH 2 assessed as decomposition at 5 mM after 24 hrs by RP-HPLC; assay type: physicochemical; conditions: read-out: Drug degradation
DcpS = assay: (§1) Stability of the compound assessed as human recombinant DcpS -mediated hydrolysis after 90 mins by HPLC; assay type: ADME; conditions: human, recombinant DcpS; read-out: Drug degradation
[7] = target: Eukaryotic translation initiation factor 4E (Homo sapiens) (UniProt P06730); assay: Binding affinity to recombinant eIF4E by fluorescence quenching titration method
[8] = target: T1, Eukaryotic translation initiation factor 4E (Oryctolagus cuniculus, UniProt P29338); assay: Inhibition of eIF4E-mediated mRNA translation in rabbit reticulocyte lysate pre-incubated for 60 mins prior to mRNA addition by luciferase reporter gene assay
[9] = Chemical stability of the compound in aqueous buffer at pH 6 assessed as decomposition at 5 mM after 24 hrs by RP-HPLC; assay type: physicochemical; conditions: read-out: Drug degradation
[10] = target: T1, Eukaryotic translation initiation factor 4E; assay: Inhibition of eIF4E-mediated mRNA translation in rabbit reticulocyte lysate by luciferase reporter gene assay
Homo sapiens = species: Homo sapiens; assay: Selectivity ratio of Ka for human recombinant DcpS to Ka for eIF4E
Nucleic Acid = assay: Capping efficiency in mRNA after 60 mins by gel electrophoresis in the presence of SP6 polymerase; assay type: nucleic-acid assay
[11] = target: Eukaryotic translation initiation factor 4E (Oryctolagus cuniculus) (UniProt P29338); assay: Inhibition of eIF4E-mediated mRNA translation in rabbit reticulocyte lysate assessed as translation efficiency after 60 mins by luciferase reporter gene assay relative to m7GpppG-capped mRNA
[12] = as §1; assay type: ADME; conditions: 1.5 h
[13] = target: T2, m7GpppX diphosphatase (Homo sapiens) (UniProt Q96C86)
T2 sequence (whole entry): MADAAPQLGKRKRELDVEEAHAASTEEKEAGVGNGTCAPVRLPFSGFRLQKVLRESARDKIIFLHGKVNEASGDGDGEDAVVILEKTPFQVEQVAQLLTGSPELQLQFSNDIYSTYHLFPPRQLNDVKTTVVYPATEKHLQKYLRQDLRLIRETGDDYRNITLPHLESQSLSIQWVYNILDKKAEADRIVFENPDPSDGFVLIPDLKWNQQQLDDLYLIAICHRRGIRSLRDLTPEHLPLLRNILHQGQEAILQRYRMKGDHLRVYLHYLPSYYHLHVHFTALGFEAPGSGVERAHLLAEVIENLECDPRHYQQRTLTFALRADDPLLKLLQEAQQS
Description: Binding affinity to human recombinant DcpS by fluorescence quenching titration method

T1 sequence (P29338 whole entry): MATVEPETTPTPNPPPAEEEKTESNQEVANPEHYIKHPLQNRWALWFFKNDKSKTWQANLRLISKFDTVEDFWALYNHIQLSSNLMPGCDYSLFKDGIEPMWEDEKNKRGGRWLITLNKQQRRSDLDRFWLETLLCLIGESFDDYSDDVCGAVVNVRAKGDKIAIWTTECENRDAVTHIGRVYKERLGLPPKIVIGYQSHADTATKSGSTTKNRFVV
Eukaryotic translation initiation factor 4E (Homo sapiens), sequence (P06730 whole entry): as the sequence (P29338 whole entry) above, with P16T, A17T, D174E counted along it
Eukaryotic translation initiation factor 4E (Oryctolagus cuniculus), sequence (P29338 whole entry): as the sequence (P29338 whole entry) above

For `C[n+]1cn([C@@H]2O[C@H](COP(=O)([O-])OP(=O)([O-])NP(=O)([O-])OC[C@H]3O[C@@H](n4cnc5c(=O)[nH]c(N)nc54)[C@H](O)[C@@H]3O)[C@@H](O)[C@H]2O)c2nc(N)[nH]c(=O)c21.[Na+].[Na+]`, which Drug degradation [1] is on record?
The Drug degradation was “Not Active”.

And the Drug degradation [2]?
Its Drug degradation is “Not Active”.

And the degraded at 24 h, 5000 µM [3]?
Its degraded at 24 h, 5000 µM is less than 10%.

What about the Stability [4] of the same molecule?
The Stability was “Stable”.

And the Drug degradation [5]?
The Drug degradation was “Not Active”.

What about the degraded at 24 h, 5000 µM [6] of the same molecule?
Its degraded at 24 h, 5000 µM is less than 10%.

What about the metabolised at 1.5 h (DcpS) of the same molecule?
Its metabolised at 1.5 h is 20%.

What about the Ka [7] of the same molecule?
The Ka was 10.1 µM⁻¹.

And the IC50 [8]?
The IC50 was 5.97 µM.

And the degraded at 24 h, 5000 µM [9]?
Its degraded at 24 h, 5000 µM is less than 10%.

What about the IC50 [10] of the same molecule?
Its IC50 is 8.49 µM.

With `CO[C@@H]1[C@H](O)[C@@H](COP(=O)([O-])OP(=O)([O-])NP(=O)([O-])OC[C@H]2O[C@@H](n3cnc4c(=O)[nH]c(N)nc43)[C@H](O)[C@@H]2O)O[C@H]1n1c[n+](C)c2c(=O)[nH]c(N)nc21.[Na+].[Na+]` as the molecule, how does the Drug degradation [1] read?
Its Drug degradation is “Not Active”.

And the Drug degradation [2]?
Its Drug degradation is “Not Active”.

And the degraded at 24 h, 5000 µM [3]?
Its degraded at 24 h, 5000 µM is less than 10%.

What about the Ratio (Homo sapiens) of the same molecule?
Its Ratio is 1.2.

What about the Stability [4] of the same molecule?
Its Stability is “Stable”.

What about the Drug degradation [5] of the same molecule?
The Drug degradation was “Not Active”.

What about the Activity (Nucleic Acid) of the same molecule?
The Activity was “Active”.

And the degraded at 24 h, 5000 µM [6]?
The degraded at 24 h, 5000 µM was less than 10%.

And the fold change (FC) [11]?
The fold change (FC) was 1.11.

And the Drug degradation [12]?
The Drug degradation was “Not Active”.

And the Ka [7]?
The Ka was 10.4 µM⁻¹.

And the Ka [13]?
The Ka was 12.8 µM⁻¹.

And the degraded at 24 h, 5000 µM [9]?
The degraded at 24 h, 5000 µM was less than 10%.
